Columns and labels:
ER-α in MCF-7 cells = biological target: T1, ER-α in MCF-7 cells (Homo sapiens, UniProt P03372); assay: Breast Cancer Cell ER-α In Cell Western Assay (SP1); type: cell-based; conditions: 4 or 24 hr post compound addition; for Emax: MCF7, SP1 antibody, read-out: ER-α In Cell Western Assay (SP1) Max Response; for DC50: SP1 antibody, read-out: ER-α In Cell Western Assay (SP1) IC50
T1 construct: endogenous in cells; host or cells: MCF-7
T1 sequence (P03372 1-595): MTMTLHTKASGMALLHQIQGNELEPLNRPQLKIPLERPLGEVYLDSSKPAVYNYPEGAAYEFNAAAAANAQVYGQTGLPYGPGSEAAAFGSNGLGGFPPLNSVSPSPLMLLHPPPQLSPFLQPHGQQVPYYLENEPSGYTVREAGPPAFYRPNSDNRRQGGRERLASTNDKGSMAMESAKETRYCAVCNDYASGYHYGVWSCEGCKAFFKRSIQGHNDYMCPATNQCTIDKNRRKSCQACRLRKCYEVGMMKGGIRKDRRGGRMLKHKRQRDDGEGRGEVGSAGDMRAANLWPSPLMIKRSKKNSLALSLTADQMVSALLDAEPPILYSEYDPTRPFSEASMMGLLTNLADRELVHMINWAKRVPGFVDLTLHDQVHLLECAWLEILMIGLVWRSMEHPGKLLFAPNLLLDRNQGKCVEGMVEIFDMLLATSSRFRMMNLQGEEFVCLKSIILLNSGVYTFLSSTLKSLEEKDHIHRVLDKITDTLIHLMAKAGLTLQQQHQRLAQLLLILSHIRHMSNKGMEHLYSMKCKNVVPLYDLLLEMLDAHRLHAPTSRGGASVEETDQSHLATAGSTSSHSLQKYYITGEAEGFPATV
Method in brief: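 MCF-7 cells in charcoal-stripped FBS medium, treated with 11-point semilog dilutions (0.3–0.000003 μM final) for 4 or 24 h. Fixed cells immunostained with SP1 antibody (800 nm) and DRAQ5 DNA (700 nm); ER/DNA ratio expressed as % of untreated cells.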

MCF-7 cells = assay: Breast Cancer Cell Viability Assays (MCF-7, CellTiter-Glo); type: cell-based; conditions: 5 days' compound exposure; for IC50: Homo sapiens, MCF7, 120 h
Method in brief: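 MCF-7 cells (320/well, RPMI with 10% FBS) exposed for 5 days to an eleven-point semilog series, 0.3–0.000003 μM final. Viability read by CellTiter-Glo luminescence, expressed as background-corrected percent of untreated cells.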

Compound | Emax (ER-α in MCF-7 cells) [%] | DC50 (ER-α in MCF-7 cells) [nM] | IC50 (MCF-7 cells) [nM] | MCF7 Viability Assay Max Response (MCF-7 cells)
Cc1nc(/C=C/C(=O)O)ccc1/C(=C(\c1ccccc1)C1CCC1)c1ccc2[nH]nc(F)c2c1 [Example 134, (E)-3-(5-((Z)-2-Cyclobutyl-1-(3-fluoro-1H-indazol-5-yl)-2-phenylvinyl)-6-methylpyridin-2-yl)acrylic acid] | ≥ 40 | ≤ 100 | ≤ 100 | ++ (++ = a single % value ≧ 40%)
Cc1cc(/C(=C(\c2ccccc2)C2CCC2)c2ccc3[nH]nc(F)c3c2)cnc1/C=C/C(=O)O [Example 135, (E)-3-(5-((Z)-2-Cyclobutyl-1-(3-fluoro-1H-indazol-5-yl)-2-phenylvinyl)-3-methylpyridin-2-yl)acrylic acid] | ≥ 40 | ≤ 100 | > 100 | ++ (++ = a single % value ≧ 40%)
CC/C(=C(/c1ccc(/C=C/C(=O)O)cc1)c1cccc2[nH]nc(F)c12)c1cnc(OC)cc1C [Example 139, (E)-3-(4-((E)-1-(3-Fluoro-1H-indazol-4-yl)-2-(6-methoxy-4-methylpyridin-3-yl)but-1-en-1-yl)phenyl)acrylic acid] | ≥ 40 | ≤ 100 | ≤ 100 | ++ (++ = a single % value ≧ 40%)
COc1cc(C)c(/C(=C(/c2ccc3[nH]nc(F)c3c2)c2ccc(/C=C/C(=O)O)nc2C)C2CCC2)cn1 [Example 140, (E)-3-(5-((Z)-2-Cyclobutyl-1-(3-fluoro-1H-indazol-5-yl)-2-(6-methoxy-4-methylpyridin-3-yl)vinyl)-6-methylpyridin-2-yl)acrylic acid] | ≥ 40 | ≤ 100 | ≤ 100 | ++ (++ = a single % value ≧ 40%)
O=C(O)/C=C/c1ccc(/C(=C(\c2ccccn2)C2CCC2)c2ccc3[nH]nc(F)c3c2)cc1 [Example 141, (E)-3-(4-((E)-2-Cyclobutyl-1-(3-fluoro-1H-indazol-5-yl)-2-(pyridin-2-yl)vinyl)phenyl)acrylic acid] | ≥ 40 | ≤ 100 | ≤ 100 | ++ (++ = a single % value ≧ 40%)
O=C(O)/C=C/c1ccc(/C(=C(\c2ncccc2Cl)C2CCC2)c2ccc3[nH]nc(F)c3c2)cc1 [Example 143, (E)-3-(4-((E)-2-(3-Chloropyridin-2-yl)-2-cyclobutyl-1-(3-fluoro-1H-indazol-5-yl)vinyl)phenyl)acrylic acid] | ≥ 40 | ≤ 100 | ≤ 100 | ++ (++ = a single % value ≧ 40%)
Cc1cccnc1/C(=C(\c1ccc(/C=C/C(=O)O)cc1)c1ccc2[nH]nc(F)c2c1)C1CCC1 [Example 144, (E)-3-(4-((E)-2-Cyclobutyl-1-(3-fluoro-1H-indazol-5-yl)-2-(3-methylpyridin-2-yl)vinyl)phenyl)acrylic acid] | ≥ 40 | ≤ 100 | ≤ 100 | ++ (++ = a single % value ≧ 40%)
O=C(O)/C=C/c1ccc(/C(=C(\c2ncccc2C(F)(F)F)C2CCC2)c2ccc3[nH]nc(F)c3c2)cc1 [Example 145, (E)-3-(4-((E)-2-Cyclobutyl-1-(3-fluoro-1H-indazol-5-yl)-2-(3-(trifluoromethyl)pyridin-2-yl)vinyl)phenyl)acrylic acid] | ≥ 40 | ≤ 100 | ≤ 100 | ++ (++ = a single % value ≧ 40%)
N#Cc1n[nH]c2ccc(/C(=C(/c3ccccc3)C3CCC3)c3ccc(/C=C/C(=O)O)cc3)cc12 [Example 148, (E)-3-(4-((E)-1-(3-Cyano-1H-indazol-5-yl)-2-cyclobutyl-2-phenylvinyl)phenyl)acrylic acid] | ≥ 40 | ≤ 100 | ≤ 100 | ++ (++ = a single % value ≧ 40%)
Cc1sccc1/C(=C(\c1ccc(/C=C/C(=O)O)cc1)c1ccc2[nH]nc(F)c2c1)C1CCC1 [Example 149, (E)-3-(4-((E)-2-Cyclobutyl-1-(3-fluoro-1H-indazol-5-yl)-2-(2-methylthiophen-3-yl)vinyl)phenyl)acrylic acid] | ≥ 40 | ≤ 100 | ≤ 100 | ++ (++ = a single % value ≧ 40%)
Cc1cc(/C(=C(\c2ccc(/C=C/C(=O)O)cc2)c2ccc3[nH]nc(F)c3c2)C2CCC2)c(C)s1 [Example 150, (E)-3-(4-((E)-2-Cyclobutyl-2-(2,5-dimethylthiophen-3-yl)-1-(3-fluoro-1H-indazol-5-yl)vinyl)phenyl)acrylic acid] | ≥ 40 | ≤ 100 | ≤ 100 | ++ (++ = a single % value ≧ 40%)

The next lines start with results.

Emax (ER-α in MCF-7 cells) [%] | DC50 (ER-α in MCF-7 cells) [nM] | IC50 (MCF-7 cells) [nM] | Compound | MCF7 Viability Assay Max Response (MCF-7 cells)
≥ 40 | ≤ 100 | ≤ 100 | COc1ncc(/C(=C(\c2ccc(/C=C/C(=O)O)cc2)c2ccc3[nH]nc(F)c3c2)C2CCC2)cc1Cl [Example 136, (E)-3-(4-((E)-2-(5-Chloro-6-methoxypyridin-3-yl)-2-cyclobutyl-1-(3-fluoro-1H-indazol-5-yl)vinyl)phenyl)acrylic acid] | ++ (++ = a single % value ≧ 40%)
≥ 40 | ≤ 100 | ≤ 100 | COc1ncc(/C(=C(\c2ccc(/C=C/C(=O)O)cc2)c2ccc3[nH]nc(F)c3c2)C2CCC2)cc1F [Example 137, (E)-3-(4-((E)-2-Cyclobutyl-1-(3-fluoro-1H-indazol-5-yl)-2-(5-fluoro-6-methoxypyridin-3-yl)vinyl)phenyl)acrylic acid] | ++ (++ = a single % value ≧ 40%)
≥ 40 | ≤ 100 | ≤ 100 | COc1ccc(/C(=C(\c2ccc(/C=C/C(=O)O)cc2)c2ccc3[nH]nc(F)c3c2)C2CCC2)cn1 [Example 138, (E)-3-(4-((E)-2-Cyclobutyl-1-(3-fluoro-1H-indazol-5-yl)-2-(6-methoxypyridin-3-yl)vinyl)phenyl)acrylic acid] | ++ (++ = a single % value ≧ 40%)
≥ 40 | ≤ 100 | ≤ 100 | O=C(O)/C=C/c1ccc(/C(=C(\c2ncccc2F)C2CCC2)c2ccc3[nH]nc(F)c3c2)cc1 [Example 142, (E)-3-(4-((E)-2-Cyclobutyl-1-(3-fluoro-1H-indazol-5-yl)-2-(3-fluoropyridin-2-yl)vinyl)phenyl)acrylic acid] | ++ (++ = a single % value ≧ 40%)
≥ 40 | ≤ 100 | ≤ 100 | O=C(O)/C=C/c1ccc(/C(=C(\c2ncc(Cl)cc2Cl)C2CCC2)c2ccc3[nH]nc(F)c3c2)cc1 [Example 146, (E)-3-(4-((E)-2-Cyclobutyl-2-(3,5-dichloropyridin-2-yl)-1-(3-fluoro-1H-indazol-5-yl)vinyl)phenyl)acrylic acid] | ++ (++ = a single % value ≧ 40%)
≥ 40 | ≤ 100 | ≤ 100 | COc1cccc(/C(=C(\c2ccc(/C=C/C(=O)O)cc2)c2ccc3[nH]nc(F)c3c2)C2CCC2)n1 [Example 147, (E)-3-(4-((E)-2-Cyclobutyl-1-(3-fluoro-1H-indazol-5-yl)-2-(6-methoxypyridin-2-yl)vinyl)phenyl)acrylic acid] | ++ (++ = a single % value ≧ 40%)

Source: patent US9499538B2, “Estrogen receptor modulators and uses thereof” (Seragon Pharmaceuticals, Inc., priority 2012, dated 2016)
